Measured values reported in patent publication US7456156B2, “Aryl boronic acids for treating obesity” (Genzyme Corporation, priority 2001, dated 2008).

Test system: fat absorption through lipase inhibition
Assay: In vivo infusion assay in rats (olive oil gavage, triglyceride recovered from intestinal contents)
Details: rats gavaged with 4 mL olive oil emulsion with drug after 18 hour fast, intestinal contents after 8 hours; for In Vivo Infusion Assay in Rats ED50 (mg/g fat) or estimate: dose at half the maximum recoverable triglyceride
Procedure: Test compounds were dissolved in DMSO or dionized water. […] Samples were stored at −80° C. until lyophilization.
3 milliliters of hexane was added to each tube then it was capped and vortexed for 15 seconds at high speed. 3 milliliters of 1 N HCl was added then samples were subjected to wrist-action shaking for 1 hour.
The data was expressed as follows. […] The milligrams/liters values obtained from the HPLC analysis were entered.

## C[N+](C)(C)CCCCCCCCCCCSCC(=O)c1ccc(B(O)O)cc1 [4-(14′-trimethylammonium-3′-thia-1′-keto-tetradecyl)-phenyl-boronic acid bromide]
Rattus norvegicus, po, dose per body weight, read-out: In Vivo Infusion Assay in Rats Ed50 (mg/kg body wt) or estimate
  ED50: 60 mg/kg
  In Vivo Infusion Assay in Rats ED50 (mg/g fat) or estimate: 8 mg/g fat

## 4-(14′-triethylammonium-3′-thia-1′-keto-tetradecyl)-3-phenyl-boronic acid bromide
  In Vivo Infusion Assay in Rats ED50 (mg/g fat) or estimate: 11 mg/g fat
Dose per body weight
  In Vivo Infusion Assay in Rats Ed50 (mg/kg body wt) or estimate: 82.5 mg/kg body wt

## 4-(14′-trimethylammonium-3′-thia-1′-keto-tridecyl)-3-fluorophenyl-boronic acid bromide
  In Vivo Infusion Assay in Rats ED50 (mg/g fat) or estimate: 2 mg/g fat
Dose per body weight
  In Vivo Infusion Assay in Rats Ed50 (mg/kg body wt) or estimate: 15 mg/kg body wt
